Laboratory results reported in PubChem BioAssay AID1918937 (Molecular Pharmacology Branch, DTP, NCI, 2023).

Tested on: 521955-158-R2-J5-PDC complex spheroid viability
Test: Anticancer human tumor 521955-158-R2-J5-PDC patient-derived pancreatic carcinoma cell line growth inhibition
Conditions: for IC50: curve of first compound; for viability, T/C: stronger effect = lower value
Summary of the method: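 Drug combinations with the LSD1 inhibitor iadademstat tested on tumor cells co-cultured as spheroids with endothelial cells and mesenchymal stem cells. Concentrations descended in half-log increments from clinical Cmax or 10 microM.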

[1] = second compound 0.1 µM, first compound 0.0316 µM
[2] = second compound 0.1 µM, first compound 0.1 µM
[3] = second compound 0.1 µM, first compound 0.316 µM
[4] = second compound 0.1 µM, first compound 1 µM
[5] = second compound 0.1 µM, first compound 3.16 µM
[6] = second compound 0.1 µM, first compound 10 µM
[7] = second compound 0.316 µM, first compound 0.0316 µM
[8] = second compound 0.316 µM, first compound 0.1 µM
[9] = second compound 0.316 µM, first compound 0.316 µM
[10] = second compound 0.316 µM, first compound 1 µM
[11] = second compound 0.316 µM, first compound 3.16 µM
[12] = second compound 0.316 µM, first compound 10 µM
[13] = second compound 1 µM, first compound 0.0316 µM
[14] = second compound 1 µM, first compound 0.1 µM
[15] = second compound 1 µM, first compound 0.316 µM
[16] = second compound 1 µM, first compound 1 µM
[17] = second compound 1 µM, first compound 3.16 µM
[18] = second compound 1 µM, first compound 10 µM
[19] = second compound 3.16 µM, first compound 0.0316 µM
[20] = second compound 3.16 µM, first compound 0.1 µM
[21] = second compound 3.16 µM, first compound 0.316 µM
[22] = second compound 3.16 µM, first compound 1 µM
[23] = second compound 3.16 µM, first compound 3.16 µM
[24] = second compound 3.16 µM, first compound 10 µM
[25] = second compound 10 µM, first compound 0.0316 µM
[26] = second compound 10 µM, first compound 0.1 µM
[27] = second compound 10 µM, first compound 0.316 µM
[28] = second compound 10 µM, first compound 1 µM
[29] = second compound 10 µM, first compound 3.16 µM
[30] = second compound 10 µM, first compound 10 µM
[31] = second compound 0.1 µM, first compound 0.00316 µM
[32] = second compound 0.1 µM, first compound 0.01 µM
[33] = second compound 0.316 µM, first compound 0.00316 µM
[34] = second compound 0.316 µM, first compound 0.01 µM
[35] = second compound 1 µM, first compound 0.00316 µM
[36] = second compound 1 µM, first compound 0.01 µM
[37] = second compound 3.16 µM, first compound 0.00316 µM
[38] = second compound 3.16 µM, first compound 0.01 µM
[39] = second compound 10 µM, first compound 0.00316 µM
[40] = second compound 10 µM, first compound 0.01 µM
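Also: spheroids exposed to agents for seven days.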
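For viability, T/C in this document: percent of DMSO vehicle control luminescence viability.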

Structure (SMILES) | IC50 (second compound 0.1 µM) [nM] | IC50 (second compound 0.316 µM) [nM] | IC50 (second compound 1 µM) [nM] | IC50 (second compound 3.16 µM) [nM] | IC50 (second compound 10 µM) [nM] | viability, T/C [1] [%] | viability, T/C [2] [%] | viability, T/C [3] [%] | viability, T/C [4] [%] | viability, T/C [7] [%] | viability, T/C [8] [%] | viability, T/C [9] [%] | viability, T/C [10] [%] | viability, T/C [13] [%] | viability, T/C [14] [%] | viability, T/C [15] [%] | viability, T/C [16] [%] | viability, T/C [19] [%] | viability, T/C [20] [%] | viability, T/C [21] [%] | further results
CC(C)c1c(-c2ccccc2)nc2c(C#N)c[nH]n2c1=O + NC1CCC(NC2CC2c2ccccc2)CC1 | > 10000 | > 10000 | > 10000 | > 10000 | > 10000 | 87.4 | 89.5 | 88.8 | 84.7 | 84.9 | 85.5 | 89.2 | 78.3 | 86.3 | 83.6 | 89.4 | 81.7 | 90 | 86.7 | 89.1 | viability, T/C [5]: 79%; viability, T/C [6]: 68.2%; viability, T/C [11]: 70.9%; viability, T/C [12]: 65%; viability, T/C [17]: 76.3%; viability, T/C [18]: 62.9%; viability, T/C [22]: 85.1%; viability, T/C [23]: 74.2%; viability, T/C [24]: 59.6%; viability, T/C [25]: 87.8%; viability, T/C [26]: 84.3%; viability, T/C [27]: 80.7%; viability, T/C [28]: 79.2%; viability, T/C [29]: 66.2%; viability, T/C [30]: 54.5%
CC1COCCN1c1cc(-c2ccnn2C)c2ccnc(-c3ccn[nH]3)c2n1 (stereo not given) + NC1CCC(NC2CC2c2ccccc2)CC1 | < 3.16 | < 3.16 | < 3.16 | < 3.16 | < 3.16 | 15.4 | 22.6 | 21.1 | 8.33 | 16.6 | 26.2 | 26.8 | 10.4 | 16.7 | 21.9 | 27.5 | 8.96 | 17.5 | 23.5 | 28.7 | viability, T/C [31]: 13.4%; viability, T/C [32]: 12.4%; viability, T/C [33]: 14.7%; viability, T/C [34]: 18.1%; viability, T/C [35]: 14.7%; viability, T/C [36]: 14.4%; viability, T/C [37]: 17.2%; viability, T/C [38]: 15.2%; viability, T/C [22]: 8.47%; viability, T/C [39]: 16.8%; viability, T/C [40]: 16.9%; viability, T/C [25]: 16.7%; viability, T/C [26]: 24.8%; viability, T/C [27]: 29.1%; viability, T/C [28]: 7.2%
COc1ccc([C@@H](O)c2cc(-c3ncnc4cc(N5CCOCC5)ccc34)c(F)cc2Cl)nn1 + NC1CCC(NC2CC2c2ccccc2)CC1 | 838 | 973 | 640 | 795 | 742 | 81.5 | 80.9 | 66.5 | 42.9 | 74.4 | 72.3 | 65.3 | 45 | 77.4 | 81.8 | 57.8 | 42.6 | 80.7 | 80.7 | 65 | viability, T/C [5]: 38.6%; viability, T/C [6]: 22.7%; viability, T/C [11]: 38.8%; viability, T/C [12]: 22.4%; viability, T/C [17]: 30.9%; viability, T/C [18]: 19.7%; viability, T/C [22]: 45.8%; viability, T/C [23]: 29.1%; viability, T/C [24]: 19.3%; viability, T/C [25]: 80%; viability, T/C [26]: 79.5%; viability, T/C [27]: 64.5%; viability, T/C [28]: 42.2%; viability, T/C [29]: 30.5%; viability, T/C [30]: 15.4%
O=C(C=Cn1cnc(-c2cc(C(F)(F)F)cc(C(F)(F)F)c2)n1)NNc1cnccn1 + NC1CCC(NC2CC2c2ccccc2)CC1 | < 3.16 | < 3.16 | < 3.16 | < 3.16 | < 3.16 | 45.4 | 35.8 | 19 | 14.7 | 52.3 | 40.6 | 21.5 | 16.1 | 52.4 | 38.4 | 26.8 | 17.2 | 36.1 | 41.5 | 21.6 | viability, T/C [31]: 40.4%; viability, T/C [32]: 42%; viability, T/C [33]: 40.8%; viability, T/C [34]: 33.4%; viability, T/C [35]: 37.7%; viability, T/C [36]: 31.5%; viability, T/C [37]: 40.2%; viability, T/C [38]: 41.1%; viability, T/C [22]: 17.1%; viability, T/C [39]: 32.2%; viability, T/C [40]: 29.3%; viability, T/C [25]: 35.3%; viability, T/C [26]: 29%; viability, T/C [27]: 24.1%; viability, T/C [28]: 13.3%
